This experiment concerns Male Sprague-Dawley rats. Description: Rat ferric chloride assay of thrombotic occlusion of the carotid artery. The conditions noted are these: continuous intravenous infusion 10 µg/kg/min. The class given is in vivo. As to the method: Studies of 3-(2-Phenylethylamino)-6-methyl-1-(2-amino-6-methyl-5-methylenecarboxamidomethylpyridinyl)-2-pyridinone using the following rat ferric chloride assay substantially as described in Thrombosis Research, No. 60, page 269(1990) by Kurtz et al were used to determine in vivo activity of the thrombin inhibitors of the invention. Male Sprague-Dawley rats (body weights 200-350 grams) were anesthetized with dial-urethane solution (0.1 ml/100 gm body weight i.p.), and a lateral tail vein was cannulated with a 23 gauge needle connected to a 12 inch length of PE50 tubing. The tubing was attached to a 3-way valve by a tubing adapter. Saline (control) or test compound, as appropriate, was administered via the tail vein catheter. A tracheostomy was performed with a 0.75 inch length of PE205 tubing. The right carotid artery is exposed and a 1.3 mm diameter Doppler flow probe was placed on the vessel. Body temperature was maintained at 37°C using a heat lamp.
6 rats were randomized to continuous intravenous infusions of saline or test compound administered via the tail vein. Test compound was administered at a rate of 10 µg/kg/min. Treatment infusions were initiated 60 min before the placement of a 3 mm square piece of Whatman No. 1 filter paper saturated with 35% FeCl3 onto the exposed carotid artery distal to the flow probe. […]

“3-(2-Phenylethylamino)-6-methyl-1-(2-amino-6-methyl-5-methylenecarboxamidomethylpyridinyl)-2-pyridinone [Example LXXXII]”: where the note is “observed up to 90 minutes after application of FeCl3”, the “rats showing evidence of thrombotic occlusion” value is reported as “None”. Further, the “efficacy against thrombotic occlusion” value (started 60 min before 35% FeCl3 on carotid artery) is listed as “fully efficacious”.

The values are drawn from patent EP0900207B1, “PYRAZINONE THROMBIN INHIBITORS” (MERCK & CO., INC., priority 1996, dated 1997).
